According to patent US11401278B2, “Macrocyclic indole derivatives” (The Broad Institute, Inc., priority 2017, dated 2022):
Where a name gives a salt, the structure may show the parent alone. Read-outs that look alike come from different tables or passages of the source. One block for each compound: values may come before it.

Key:
[1] = amine bond
SUDHL10 [2] = test: Induction of caspase-3/7 activity (Assay 4), SUDHL10; assay type: cell-based; details: caspase-3/7 induction, 3 hours, median
Method: (§1) Cellular Assays Assay 4 Induction of Caspase-3/7 Activity Upon Treatment of Cells with Selected Compounds
(§2) The BH3-domain of MCL-1 sequesters pro-apoptotic proteins, thereby inhibiting apoptosis. In contrast, MCL-1 inhibitors are expected to antagonize this effect leading to an increase in apoptosis, which can be determined by measuring the activity of caspase-3/7.
(§3) The activity of caspase-3/7 was determined in DLBCL (Diffuse large B-cell lymphoma) cell lines (SUDHL5 and SUDHL10) upon treatment with different compounds, using the Caspase-Glo® 3/7 reagent from Promega (G8092).
(§4) Rim wells were excluded. The cells were incubated for 3 hours in a humidified incubator at 37° C.
(§5) For the evaluation of the results, the background measured with “medium-only” was subtracted from all other values. […] The Bella DRC Master Sheet was used to calculate EC50s, with fixed C0=1 and CI=plateau/max induction for the reference compound.

AMO-1 = test: Antiproliferation assay (Assay 7), AMO-1; assay type: cell-based; details: CellTiter-Glo, 72 hours, several values per example, read-out: Antiproli AMO-1 [M] IC50
Method: (§6) Assessment of the Anti-Proliferative Effect of Compounds in Different Cell Lines
(§7) The impact of compounds on the proliferation of different cell lines was assessed using the CellTiter-Glo® Luminescent Cell Viability reagent from Promega (G7573).
(§8) In parallel, cells were plated in a reference (day 0) plate for time zero determination.
(§9) Rim wells were excluded. The cells were incubated for 72 hours in a humidified incubator at 37° C. The day 0 plate was measured by adding 30 μL/well of CTG solution (CellTiter-Glo® Luminescent Cell Viability reagent, Promega G7573) to time zero wells in the reference plate followed by a 10 minutes incubation and luminescence reading at 0.1 ms. using the PHERAstar FS microplate reader (BMG Labtech).
(§10) After 72 hours incubation, the treated plates were measured in the same way as the day 0 plate mentioned above.

SUDHL10 [3] = test: Induction of cytotoxicity (Assay 6), SUDHL10; details: read-out: Cytotox SUDHL10 [M] (median) IC50, CellTiter-Glo, 5 hours, SUDHL10
SUDHL5 [4] = test: Antiproliferation assay (Assay 7), SUDHL5; assay type: cell-based; details: CellTiter-Glo, 72 hours, median, read-out: Antiproli SUDHL5 [M] (median) IC50
Method: as §6, §7, §8, §9, §10

SUDHL5 [5] = test: Induction of cytotoxicity (Assay 6), SUDHL5; details: read-out: Cytotox SUDHL5 [M] (median) IC50, CellTiter-Glo, 5 hours, SUDHL5
SUDHL5 [6] = test: Induction of caspase-3/7 activity (Assay 4), SUDHL5; assay type: cell-based; details: caspase-3/7 induction, 3 hours, median
Method: as §1, §2, §3, §4, §5

HMC-1-8 = test: Antiproliferation assay (Assay 7), HMC-1-8; assay type: cell-based; details: CellTiter-Glo, 72 hours, several values per example, read-out: Antiproli HMC-1-8 [M] IC50
Method: as §6, §7, §8, §9, §10

MCL-1 = MCL-1 (Homo sapiens (Human), UniProt Q07820, K194A/K197A/R201A); test: Protein-protein interaction assay MCL-1/Noxa BH3 peptide (MCL-1 assay, TR-FRET); assay type: binding; details: MBP-MCL-1 / Noxa BH3 peptide, median
Method: Protein-Protein Interaction Assay: MCL-1/Noxa BH3 Peptide (MCL-1 Assay)
The dose-dependent inhibition by the compounds described in this invention of the interaction between MCL-1 and the BH3 domain of Noxa (both human) was determined using a steady state binding competition assay with time-resolved fluorescence energy transfer (TR-FRET) readout. For that purpose MCL-1 (amino acids 173-329, N-terminal fused to Maltose Binding Protein (MBP) SEQ ID 1) and a synthetic Noxa BH3-derived peptide of sequence Biotin-PEG2-PEG2-PAELEVE-Nva-ATQLRRFGDKLNFRQKLL-amide (SEQ ID 2) served as protein receptor and tracer ligand respectively. The MBP-MCL-1 was purchased from Beryllium (Bedford, Mass., USA). The expression and purification of this protein construct has been described elsewhere (DOI:10.1371/journal.pone.0125010). The Noxa BH3-derived peptide can be obtained from e.g. Biosyntan (Berlin, Germany).
In the assay 11 different concentrations of each compound (0.1 nM, 0.33 nM, 1.1 nM, 3.8 nM, 13 nM, 44 nM, 0.15 μM, 0.51 μM, 1.7 μM, 5.9 μM and 20 μM) were typically measured as duplicates in the same microtiter plate. For that, 100-fold concentrated DMSO solutions were prepared by serial dilutions (1:3.4) of a 2 mM stock solution in a clear, 384-well microtiter plate (Greiner Bio-One, Frickenhausen, Germany). From there, 50 nl were transferred in a dark test plate (Greiner Bio-One, Frickenhausen, Germany). The assay was initiated by addition of 2 μl of a 2.5-fold concentrated MBP-MCL-1 solution (usually for a 1 nM end concentration in 5 μl reaction volume) in aqueous assay buffer [50 mM Tris/HCl pH 7, 100 mM sodium chloride (NaCl), 50 mM potassium fluoride (KF), 0.005% Tween-20, 2 mM DTT, 0.1% bovine gamma globulin (BGG)] to the compounds in the assay plate. This was followed by a 10-minute incubation step at 22° C. for pre-equilibration of the putative complex between MBP-MCL-1 and the compounds. After that, 3 μl of a 1.67-fold concentrated solution (in assay buffer) consisting of Noxa BH3-derived peptide (1 nM end concentration) and TR-FRET detection reagents [1.67 nM anti-MBP-Eu cryptate and 1.67 nM streptavidin-XL665 (both from Cisbio Bioassays, Codolet, France)], were added.
The mixture was incubated in the dark for one hour at 22° C. and then overnight at 4° C. The formation of MCL-1/Noxa complexes was determined by measuring the resonance energy transfer of the anti-MBP-Eu-cryptate antibody to the streptavidin-XL665 present in the reaction. For that purpose, the fluorescence emission at 620 nm and 665 nm after excitation at 330-350 nm was measured in a TR-FRET measuring instrument, for instance a Rubystar or a Pherastar (both from BMG Lab Technologies, Offenburg, Germany) or a Viewlux (Perkin-Elmer). The ratio of the emission at 665 nm and at 622 nm was used as indicator of the amount of MCL-1/NOXA complexes present.
The resulting data (ratio) were normalized, taking 0% inhibition as the mean value of control measurements (usually 32 data points) where all reagents were included. In this case 50 nl DMSO were used instead of compounds. A 100% inhibition corresponded to the mean value of control measurements (usually 32 data points) where all reagents except MCL-1 were included. IC50 values were determined by regression analysis based on a 4 parameter equation (minimum, maximum, IC50, Hill; Y=Max+(Min−Max)/(1+(X/IC50)^HiII) using the Screener Software (Genedata).

Chain of MCL-1 (Q07820 whole entry K194A/K197A/R201A, looked up): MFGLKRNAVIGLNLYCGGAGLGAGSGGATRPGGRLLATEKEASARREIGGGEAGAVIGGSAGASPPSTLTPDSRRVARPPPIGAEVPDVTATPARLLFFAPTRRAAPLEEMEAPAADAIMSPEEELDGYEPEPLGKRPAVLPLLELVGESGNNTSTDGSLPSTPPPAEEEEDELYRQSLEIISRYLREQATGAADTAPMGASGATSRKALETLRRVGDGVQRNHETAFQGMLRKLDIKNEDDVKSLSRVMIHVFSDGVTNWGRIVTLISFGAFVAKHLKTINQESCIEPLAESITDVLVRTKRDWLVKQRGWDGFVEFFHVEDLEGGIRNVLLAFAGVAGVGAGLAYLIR

Compound: CCOC(=O)c1c(CCCO[Si](C)(C)C(C)(C)C)c2ccc(Cl)c3c2n1CCCS(=O)(=O)N(C)Cc1nn(C)c(CC)c1-3
ring closure, yield of all isomers ([1]; from CCOC(=O)c1[nH]c2c(-c3c(CN(C)S(=O)(=O)CCCCl)nn(C)c3CC)c(Cl)ccc2c1CCCO[Si](C)(C)C(C)(C)C, Cs2CO3, MeCN, 50.0 mM, 60.0 °C, 18.0 h): 74.6%

Compound: CCOC(=O)c1c(CCCO[Si](C)(C)C(C)(C)C)c2ccc(Cl)c3c2n1CCCS(=O)(=O)N(C1CC1)Cc1nn(C)c(C)c1-3
ring closure, yield of all isomers ([1]; from CCOC(=O)c1[nH]c2c(-c3c(CN(C4CC4)S(=O)(=O)CCCCl)nn(C)c3C)c(Cl)ccc2c1CCCO[Si](C)(C)C(C)(C)C, Cs2CO3, acetonitrile, 50.4 mM, 60.0 °C, 48.0 h): 60%

Compound: CCOC(=O)c1c(CCCO[Si](C)(C)C(C)(C)C)c2ccc(F)c3c2n1CCCS(=O)(=O)N(C)Cc1nn(C)c(C)c1-3
ring closure, yield of all isomers ([1]; from CCOC(=O)c1[nH]c2c(-c3c(CN(C)S(=O)(=O)CCCCl)nn(C)c3C)c(F)ccc2c1CCCO[Si](C)(C)C(C)(C)C, Cs2CO3, NaI, acetonitrile, 87.3 mM, 60.0 °C, 240.0 h): 47.7%

Compound: CCOC(=O)c1c(CCCO[Si](C)(C)C(C)(C)C)c2ccc(F)c3c2n1CCCS(=O)(=O)N(C)Cc1nn(C)c(CC)c1-3
ring closure, yield of all isomers ([1]; from CCOC(=O)c1[nH]c2c(-c3c(CN(C)S(=O)(=O)CCCCl)nn(C)c3CC)c(F)ccc2c1CCCO[Si](C)(C)C(C)(C)C, Cs2CO3, acetonitrile, 50.0 mM, 60.0 °C, 72.0 h): 55.2%

Compound: CCOC(=O)c1c(CCCOc2cccc3cc(F)ccc23)c2ccc(Cl)c3c2n1CCCS(=O)(=O)N(C)C(CCN1CCOCC1)c1nn(C)c(C)c1-3 (stereo not drawn)
ring closure, yield of all isomers ([1]; from CCOC(=O)c1[nH]c2c(-c3c(C(CCN4CCOCC4)N(C)S(=O)(=O)CCCCl)nn(C)c3C)c(Cl)ccc2c1CCCOc1cccc2cc(F)ccc12, cesium carbonate, acetonitrile, 37.4 mM, 60.0 °C, 48.0 h): 82%

Compound: CCOC(=O)c1c(CCCOc2cccc3cc(F)ccc23)c2ccc(Cl)c3c2n1CCCS(=O)(=O)N(C)CCC(N1CCOCC1)c1nn(C)c(C)c1-3 (stereo not drawn)
ring closure, yield of all isomers ([1]; from CCOC(=O)c1[nH]c2c(-c3c(C(CCN(C)S(=O)(=O)CCCCl)N4CCOCC4)nn(C)c3C)c(Cl)ccc2c1CCCOc1cccc2cc(F)ccc12, Cs2CO3, acetonitrile, 40.7 mM, 60.0 °C, 48.0 h): 63.7%

Compound: CCOC(=O)c1c(CCCOc2cccc3cc(F)ccc23)c2ccc(Cl)c3c2n1CCCS(=O)(=O)N(C1CC1)Cc1nn(C)c(CC)c1-3
ring closure, yield of all isomers ([1]; from CCOC(=O)c1[nH]c2c(-c3c(CN(C4CC4)S(=O)(=O)CCCCl)nn(C)c3CC)c(Cl)ccc2c1CCCOc1cccc2cc(F)ccc12, cesium carbonate, acetonitrile, 47.2 mM, 60.0 °C, 16.0 h): 91%

Compound: CCOC(=O)c1c(CCCOc2cccc3cc(F)ccc23)c2ccc(Cl)c3c2n1CCCS(=O)(=O)N(CC)Cc1nn(C)c(CC)c1-3
ring closure, yield of all isomers ([1]; from CCOC(=O)c1[nH]c2c(-c3c(CN(CC)S(=O)(=O)CCCCl)nn(C)c3CC)c(Cl)ccc2c1CCCOc1cccc2cc(F)ccc12, cesium carbonate, acetonitrile, 50.9 mM, 60.0 °C, 48.0 h): 73%

Compound: CCOC(=O)c1c(CCCOc2cccc3cc(F)ccc23)c2ccc(Cl)c3c2n1CCCS(=O)(=O)N(CCN1CCOCC1)Cc1nn(C)c(CC)c1-3
ring closure, yield of all isomers ([1]; from CCOC(=O)c1[nH]c2c(-c3c(CN(CCN4CCOCC4)S(=O)(=O)CCCCl)nn(C)c3CC)c(Cl)ccc2c1CCCOc1cccc2cc(F)ccc12, cesium carbonate, acetonitrile, 50.3 mM, 40.0 °C, 48.0 h): 90.3%

Compound: CCOC(=O)c1c(CCCOc2cccc3cc(F)ccc23)c2ccc(Cl)c3c2n1CCCS(=O)(=O)N(Cc1ccc(OC)cc1OC)Cc1nn(C)c(C)c1-3
ring closure, yield of all isomers ([1]; from CCOC(=O)c1[nH]c2c(-c3c(CN(Cc4ccc(OC)cc4OC)S(=O)(=O)CCCCl)nn(C)c3C)c(Cl)ccc2c1CCCOc1cccc2cc(F)ccc12, cesium carbonate, acetonitrile, 51.5 mM, 60.0 °C, 16.0 h): 48%

Compound: CCOC(=O)c1c(CCCOc2cccc3ccccc23)c2cccc3c2n1CCCS(=O)(=O)N(C)C(CCN1CCOCC1)c1nn(C)c(C)c1-3 (stereo not drawn)
ring closure, yield of all isomers ([1]; from CCOC(=O)c1[nH]c2c(-c3c(C(CCN4CCOCC4)N(C)S(=O)(=O)CCCCl)nn(C)c3C)cccc2c1CCCOc1cccc2ccccc12, Cs2CO3, acetonitrile, 49.6 mM, 60.0 °C, 48.0 h): 99.7%

Compound: CCOC(=O)c1c(CCCOc2cccc3ccccc23)c2cccc3c2n1CCCS(=O)(=O)N(CCCN1CCCC1=O)Cc1nn(C)c(CC)c1-3
ring closure, yield of all isomers ([1]; from CCOC(=O)c1[nH]c2c(-c3c(CN(CCCN4CCCC4=O)S(=O)(=O)CCCCl)nn(C)c3CC)cccc2c1CCCOc1cccc2ccccc12, NaH, DMF, 25.1 mM, 60.0 °C, 22.0 h): 80.5%

Compound: CCOC(=O)c1c(CCCOc2cccc3ccccc23)c2cccc3c2n1CCCS(=O)(=O)N(CCN1CCCCC1)Cc1nn(C)c(CC)c1-3
ring closure, yield of all isomers ([1]; from CCOC(=O)c1[nH]c2c(-c3c(CN(CCN4CCCCC4)S(=O)(=O)CCCCl)nn(C)c3CC)cccc2c1CCCOc1cccc2ccccc12, NaH, DMF, 25.0 mM, 60.0 °C, 21.0 h): 69%

EC50 (SUDHL10 [2]): 13 µM | IC50 (SUDHL5 [4]): 1.1e-05 M | EC50 (SUDHL5 [6]): 8.9 µM | IC50 (MCL-1): 0.016 µM
Compound: CCc1c2c(nn1C)CN(C1CC1)S(=O)(=O)CCCn1c(C(=O)O)c(CCCOc3cccc4cc(F)ccc34)c3ccc(Cl)c-2c31 (single isomer, unassigned; enantiomer 2) [Example 55, (+)-4-chloro-14-cyclopropyl-3-ethyl-7-{3-[(6-fluoronaphthalen-1-yl)oxy]propyl}-2-methyl-13,13-dioxo-10,11,12,13,14,15-hexahydro-2H-13lambda^6-pyrazolo[3′,4′:4,5][1,2,8]thiadiazacycloundecino[6,7,8-hi]indole-8-carboxylic acid N-ethylethanamine Salt (Enantiomer 2)]
IC50 (AMO-1): > 3.3e-05 M | IC50 (SUDHL10 [3]): 1.3e-05 M | IC50 (SUDHL5 [5]): 8.2e-06 M | IC50 (HMC-1-8): 2.1e-05 M
